Patent US20220009920A1 (GB005, Inc., priority 2020, published 2022)

Columns and labels:
Assay in all cases: Large panel kinase profiling
Format in all cases: biochemical
Details in all cases: 1 μM test article, 1 mM ATP
TAOK1 = target: T1, TAOK1 (Homo sapiens, UniProt Q7L7X3)
T1 construct: AssayQuant Technologies, Inc. (contract assay)
T1 sequence (Q7L7X3 1-1001): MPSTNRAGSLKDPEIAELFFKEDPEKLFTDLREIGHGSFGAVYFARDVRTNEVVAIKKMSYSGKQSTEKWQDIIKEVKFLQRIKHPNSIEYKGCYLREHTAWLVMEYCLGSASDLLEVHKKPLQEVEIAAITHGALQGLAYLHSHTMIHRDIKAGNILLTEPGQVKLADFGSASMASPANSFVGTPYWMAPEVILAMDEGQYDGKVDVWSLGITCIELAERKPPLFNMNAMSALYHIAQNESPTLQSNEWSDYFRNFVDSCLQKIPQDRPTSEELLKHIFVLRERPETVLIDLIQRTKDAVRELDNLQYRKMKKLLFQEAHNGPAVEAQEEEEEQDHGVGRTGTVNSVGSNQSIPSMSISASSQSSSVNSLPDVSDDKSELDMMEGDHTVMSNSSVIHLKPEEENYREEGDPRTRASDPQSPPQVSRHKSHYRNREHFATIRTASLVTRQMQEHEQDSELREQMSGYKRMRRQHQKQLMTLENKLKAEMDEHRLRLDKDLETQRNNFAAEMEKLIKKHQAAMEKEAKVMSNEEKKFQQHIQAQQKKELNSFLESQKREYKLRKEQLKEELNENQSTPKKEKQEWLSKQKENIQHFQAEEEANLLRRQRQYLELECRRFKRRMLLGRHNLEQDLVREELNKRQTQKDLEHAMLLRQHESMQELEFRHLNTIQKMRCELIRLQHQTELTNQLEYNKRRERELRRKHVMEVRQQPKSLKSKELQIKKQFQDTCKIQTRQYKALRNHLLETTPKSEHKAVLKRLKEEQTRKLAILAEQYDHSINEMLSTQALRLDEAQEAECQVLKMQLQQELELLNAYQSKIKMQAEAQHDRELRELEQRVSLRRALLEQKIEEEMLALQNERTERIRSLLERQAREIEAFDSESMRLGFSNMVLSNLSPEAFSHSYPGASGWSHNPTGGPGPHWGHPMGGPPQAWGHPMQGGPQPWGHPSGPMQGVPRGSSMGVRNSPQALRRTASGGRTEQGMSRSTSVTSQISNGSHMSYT
Summary of the method: (§1)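 Fluorescence intensity (Ex 360 nm, Em 485 nm) was monitored continuously, once per minute, in PhosphoSens CSox-Sensor kinase reactions held at 30° C. Compound was present at 1 μM and ATP at 1 mM.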

MAPK15/ERK7 = target: T2, MAPK15/ERK7 (Homo sapiens, UniProt Q8TD08)
T2 construct: AssayQuant Technologies, Inc. (service provider)
T2 sequence (Q8TD08 1-544): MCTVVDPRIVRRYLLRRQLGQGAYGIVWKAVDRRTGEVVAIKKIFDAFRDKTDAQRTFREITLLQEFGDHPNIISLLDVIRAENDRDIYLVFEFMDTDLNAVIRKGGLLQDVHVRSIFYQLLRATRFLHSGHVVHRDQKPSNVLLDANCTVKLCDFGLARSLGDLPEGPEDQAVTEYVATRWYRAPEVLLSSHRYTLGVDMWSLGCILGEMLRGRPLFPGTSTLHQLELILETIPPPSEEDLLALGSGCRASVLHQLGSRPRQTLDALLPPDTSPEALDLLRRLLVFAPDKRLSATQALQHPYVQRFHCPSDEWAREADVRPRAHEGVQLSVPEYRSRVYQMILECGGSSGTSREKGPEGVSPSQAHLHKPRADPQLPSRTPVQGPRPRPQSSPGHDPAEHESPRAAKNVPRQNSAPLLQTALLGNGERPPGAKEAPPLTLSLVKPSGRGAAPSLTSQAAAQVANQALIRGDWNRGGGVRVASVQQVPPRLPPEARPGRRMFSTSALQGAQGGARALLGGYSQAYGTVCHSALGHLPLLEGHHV
Summary of the method: as §1

PAK1 = PAK1 (Homo sapiens, UniProt Q13153)
PAK1, sequence (Q13153 whole entry): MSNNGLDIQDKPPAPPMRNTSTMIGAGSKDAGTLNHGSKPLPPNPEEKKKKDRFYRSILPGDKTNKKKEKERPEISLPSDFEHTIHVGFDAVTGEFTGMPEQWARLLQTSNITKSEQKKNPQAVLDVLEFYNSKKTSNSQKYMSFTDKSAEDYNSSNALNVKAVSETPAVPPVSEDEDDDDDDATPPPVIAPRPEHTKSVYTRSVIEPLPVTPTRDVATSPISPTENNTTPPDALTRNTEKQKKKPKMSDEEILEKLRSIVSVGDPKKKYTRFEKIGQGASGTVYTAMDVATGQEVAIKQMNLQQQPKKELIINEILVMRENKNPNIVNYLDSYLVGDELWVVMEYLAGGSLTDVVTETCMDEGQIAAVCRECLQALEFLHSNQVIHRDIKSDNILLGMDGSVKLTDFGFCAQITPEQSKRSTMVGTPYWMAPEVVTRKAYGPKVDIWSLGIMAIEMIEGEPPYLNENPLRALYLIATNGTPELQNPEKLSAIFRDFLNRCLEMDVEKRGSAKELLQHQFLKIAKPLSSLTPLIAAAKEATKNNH
Summary of the method: as §1

PKN2 = PKN2 (Homo sapiens, UniProt Q16513)
PKN2, sequence (Q16513 whole entry, species assumed): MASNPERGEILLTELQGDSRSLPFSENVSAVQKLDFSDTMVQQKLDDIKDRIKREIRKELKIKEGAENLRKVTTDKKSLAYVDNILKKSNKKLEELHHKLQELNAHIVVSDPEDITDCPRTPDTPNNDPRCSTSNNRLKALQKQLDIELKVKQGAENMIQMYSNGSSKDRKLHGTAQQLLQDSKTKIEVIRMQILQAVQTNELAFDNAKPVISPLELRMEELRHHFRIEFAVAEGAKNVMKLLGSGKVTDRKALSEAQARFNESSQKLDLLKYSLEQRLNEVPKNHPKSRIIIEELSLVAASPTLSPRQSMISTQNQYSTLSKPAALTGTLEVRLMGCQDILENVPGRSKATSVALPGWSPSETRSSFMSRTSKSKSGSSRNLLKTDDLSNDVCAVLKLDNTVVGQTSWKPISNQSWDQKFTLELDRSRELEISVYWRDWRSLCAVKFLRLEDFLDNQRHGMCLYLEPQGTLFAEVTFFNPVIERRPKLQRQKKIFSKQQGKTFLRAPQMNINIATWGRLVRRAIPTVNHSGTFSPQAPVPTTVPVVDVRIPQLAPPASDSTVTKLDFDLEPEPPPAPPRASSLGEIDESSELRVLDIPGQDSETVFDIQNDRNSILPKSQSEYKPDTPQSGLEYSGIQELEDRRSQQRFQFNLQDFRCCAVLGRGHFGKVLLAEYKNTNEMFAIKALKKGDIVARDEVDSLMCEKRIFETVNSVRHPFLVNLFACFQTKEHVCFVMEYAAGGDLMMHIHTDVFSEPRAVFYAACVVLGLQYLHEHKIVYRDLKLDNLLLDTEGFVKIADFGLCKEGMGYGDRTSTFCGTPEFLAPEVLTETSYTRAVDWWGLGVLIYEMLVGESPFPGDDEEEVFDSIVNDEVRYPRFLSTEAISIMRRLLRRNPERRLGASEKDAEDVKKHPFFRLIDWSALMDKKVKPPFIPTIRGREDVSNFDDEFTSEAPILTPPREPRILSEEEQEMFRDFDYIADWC
Summary of the method: as §1

TYRO3 = target: T3, TYRO3 (Homo sapiens, UniProt Q06418)
T3 construct: AssayQuant Technologies, Inc. (contract laboratory that ran the panel)
T3 sequence (Q06418 41-890): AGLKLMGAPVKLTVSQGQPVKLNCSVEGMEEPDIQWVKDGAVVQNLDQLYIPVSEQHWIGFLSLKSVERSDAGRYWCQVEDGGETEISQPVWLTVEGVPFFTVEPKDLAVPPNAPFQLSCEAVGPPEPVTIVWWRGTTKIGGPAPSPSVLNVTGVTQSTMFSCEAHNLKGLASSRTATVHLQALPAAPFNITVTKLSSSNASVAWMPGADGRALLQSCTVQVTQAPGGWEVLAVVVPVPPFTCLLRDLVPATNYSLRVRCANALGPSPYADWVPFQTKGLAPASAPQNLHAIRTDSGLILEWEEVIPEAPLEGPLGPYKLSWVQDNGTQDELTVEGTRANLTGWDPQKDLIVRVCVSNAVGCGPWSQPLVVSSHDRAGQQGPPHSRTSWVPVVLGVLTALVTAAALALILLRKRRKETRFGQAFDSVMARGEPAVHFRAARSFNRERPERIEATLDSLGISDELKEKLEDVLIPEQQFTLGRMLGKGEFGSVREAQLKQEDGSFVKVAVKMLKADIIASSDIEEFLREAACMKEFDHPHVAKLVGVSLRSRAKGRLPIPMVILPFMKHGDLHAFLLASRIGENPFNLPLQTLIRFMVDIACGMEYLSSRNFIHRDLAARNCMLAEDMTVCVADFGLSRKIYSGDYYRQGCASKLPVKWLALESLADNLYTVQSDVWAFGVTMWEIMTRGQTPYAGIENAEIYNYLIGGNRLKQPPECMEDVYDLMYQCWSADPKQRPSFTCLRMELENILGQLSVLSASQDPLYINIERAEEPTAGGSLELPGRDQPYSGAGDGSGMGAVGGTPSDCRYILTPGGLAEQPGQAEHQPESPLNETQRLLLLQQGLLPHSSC
Summary of the method: as §1

C=CC(=O)N1CCCC(c2c(F)cc(C(N)=O)c3[nH]c4c(c23)CCCCC4)C1 (single isomer, unassigned) [Compound 5-6]
inhibition at 1 µM (TAOK1): 11.9%
inhibition at 1 µM (MAPK15/ERK7): -3.4%
inhibition at 1 µM (PAK1): 9.3%
inhibition at 1 µM (PKN2): 0.7%
inhibition at 1 µM (TYRO3): 2.4%

C=CC(=O)N1CCC[C@@H](c2c(F)cc(C(N)=O)c3[nH]c4c(c23)CCC4)C1 [Compound 10-2, (S)-8-(1-acryloylpiperidin-3-yl)-7-fluoro-1,2,3,4-tetrahydrocyclo-penta[b]indole-5-carboxamide]
inhibition at 1 µM (TAOK1): 11.1%
inhibition at 1 µM (MAPK15/ERK7): -2%
inhibition at 1 µM (PAK1): 6.8%
inhibition at 1 µM (PKN2): 7.5%
inhibition at 1 µM (TYRO3): 10.1%

C=CC(=O)N1CCC[C@@H](c2c(F)cc(C(N)=O)c3[nH]c4c(c23)CC2(CC4)CC2)C1 [Compound 6-2, (S)-5-(1-acryloylpiperidin-3-yl)-6-fluoro-1,2,4,9-tetrahydrospiro[carbazole-3,1′-cyclopropane]-8-carboxamide]
inhibition at 1 µM (TAOK1): 9.5%
inhibition at 1 µM (MAPK15/ERK7): 15.3%
inhibition at 1 µM (PAK1): 11.4%
inhibition at 1 µM (PKN2): 16.2%
inhibition at 1 µM (TYRO3): 14.7%
